Results as given in US10736906B2, “Method to enhance tissue regeneration” (CHILDREN'S MEDICAL CENTER CORPORATION, priority 2006, dated 2020).

How the values were obtained:
liver growth [1] = experiment: chart of prostaglandin derivatives: relative potency to increase liver growth; settings: zebrafish, in vivo
From the text: Another embodiment of the present invention provides for compositions and methods that modulate vertebrate tissue growth or regeneration via the prostaglandin signaling pathway. For example, prostaglandin E2 enhances vertebrate tissue regeneration. A chemical screen in zebrafish identified the prostaglandin signaling pathway as a potent modifier of liver growth during embryonic development. […] As many molecular pathways controlling embryonic development mediate tissue homeostasis in the adult, the effects of prostaglandin signaling during liver regeneration were examined. […] Fish were revived and allowed to heal in fish water.

liver growth [2] = experiment: liver growth, early experimental evidence; format: in vivo
[3] = tested on: cKit+Sca1+ Lineage- (KSL) bone marrow cells; experiment: murine transplantation assay with purified HSCs, CFU-S12; format: in vivo, mice
Procedure: To assess whether prostaglandin levels regulate wnt activity in HSCs, murine transplantation assays were performed utilizing purified HSCs. FACS-isolated cKit+Sca1+ Lineage—(KSL) bone marrow cells were transplanted into lethally irradiated recipients.

[4] = tested on: hematopoietic stem cells (HSCs); experiment: HSC formation in zebrafish embryos (runx1, c-myb expression), with heat-shock inducible wnt modulators; format: in vivo
Procedure: The functional consequences of the PGE2/wnt interaction in HSC formation during embryonic development were analyzed by examining the expression of the HSC markers runx1 and c-myb. Heat shock induction of a canonical wnt ligand, wnt8, at ten somites led to enhanced HSC formation at 36 hours post fertilization (hpf; 47/54). When wnt8 induction was followed by exposure to indomethacin (10 μM, 16-36 hpf) HSC formation was reduced to or below wild-type levels ( 43/46).
Inducible negative regulators of wnt activity were used in combination with dmPGE2 treatment to functionally localize the interaction between the PG and wnt pathways. Dkk1 antagonizes the wnt pathway at the level of membrane binding and the initiation of the wnt signaling cascade. Dkk induction in hs:dkk1 transgenic embryos inhibited HSC development ( 34/49). Exposure to exogenous dmPGE2 rescued the dkk1-mediated effect on HSC formation ( 28/51, 10 μM, 16-36 hpf). Axin is a central component of the β-catenin destruction complex and thus a negative regulator of the wnt signaling cascade in the cytosolic compartment. […] Similarly, a dominant-negative form of the β-catenin transcriptional co-activator TCF abolished HSC formation ( 60/62), and no rescue was affected via dmPGE2 exposure.
The wnt pathway can actively enhance HSC proliferation through signaling from the HSC niche as well as within HSCs themselves. PGE2 regulates HSC formation at the level of the vascular niche as well as within the HSCs. North et al., 2007. In order to identify transcriptional programs regulated by the wnt signaling pathway, genes involved in HSC development were analyzed by qPCR.
The functional interaction of signaling processes in the zebrafish, down stream from PG, was explored by increasing camp production using forskolin and inhibiting PKA with H89. […] Furthermore, the rescue of dkk effects by dmPGE2 was eliminated by H89.
Heat shock activation/repression of wnt signaling: Embryonic heat-shock experiments were conducted at 38° C. for a duration of 20 minutes unless otherwise noted. Genotype was determined by the presence of GFP fluorescence at three hours post heat-induction, non-fluorescence (wild-type) siblings were used as controls.
(§1) In situ hybridization: Paraformaldehyde (PFA)-fixed embryos were processed for in situ hybridization using standard zebrafish protocols such as those found on the internet at, for example, ZFIN: The Zebrafish Model Organism Database (hosted by the Univ. Oregon, Eugene, Oreg.). The following RNA probes were used to detect alterations in endodermal and liver development: GFP, LFABP, sterol carrier protein, transferrin, foxA3, insulin, trypsin, and IFABP. Changes in expression compared to wild-type controls are reported as the # altered/# scored per genotype; a minimum of three independent experiments were conducted per analysis.

adult zebrafish liver = experiment: liver regeneration and wound healing after 1/3 partial hepatectomy in adult zebrafish; format: in vivo; settings: for wound healing at the incision site: skin wounds following partial hepatectomy
From the text: Following ⅓ partial hepatectomy, the zebrafish liver regenerates within five days to seven days.
As many molecular pathways controlling embryonic development mediate tissue homeostasis in the adult, the effects of prostaglandin signaling during liver regeneration were examined. […] Fish were revived and allowed to heal in fish water.
To test the requirement of functional prostaglandin signaling during regeneration, fish were exposed to the dual-specific cox inhibitor, indomethacin, from hour 6 to hour 18 following partial hepatectomy.
Liver Resection: Folling administration of tricaine anesthetic, ⅓ partial hepaectomy of the adult zebrafish liver was performed under brightfield imaging on a dissection microscope. An incision was made using microdissection scissors posterior to the heart on the left lateral portion of the abdomen.

wnt activity = wnt activity in TOP:dGFP wnt reporter zebrafish embryos (in situ hybridization and qPCR for GFP); format: in vivo; settings: for wnt activity in the developing brain, liver and gut: developing zebrafish, TOP:dGFP
From the text: An embodiment of the present invention provides for manipulation of the genetic interaction between PGE2 and wnt/β-catenin signaling, which regulates developmental specification of stem cells and regeneration. Briefly, prostaglandin (PG) E2 is required for the formation and function of hematopoietic stem cells (HSCs) in vivo, yet its mechanism of action in these cells is not completely understood.
The following RNA probes were used to detect alterations in endodermal and liver development: GFP, LFABP, sterol carrier protein, transferrin, foxA3, insulin, trypsin, and IFABP. Changes in expression compared to wild-type controls are reported as the # altered/# scored per genotype; a minimum of three independent experiments were conducted per analysis.

[5] = tested on: stem and progenitor cell population; experiment: hematopoietic recovery following irradiation in the adult zebrafish (kidney marrow); format: in vivo; settings: zebrafish
Procedure: It has been hypothesized that wnt activation regulates HSC self-renewal and repopulation. Wnt activation is also thought to be involved in carcinogenesis, however, making the concept of direct enhancement of wnt signaling problematic. Whether regulation of wnt activity by prostaglandin can effectively modulate HSC homeostasis in the adult, was determined by observing hematopoietic recovery following irradiation in the zebrafish. […] APCMin/+ mice have elevated β-catenin levels due to loss of APC function in the destruction complex.

[6] = tested on: endodermal and hepatic progenitor cells; experiment: endodermal progenitors (foxA3) and liver size (lfabp) in zebrafish embryos, in situ hybridization; format: in vivo
From the text: To determine whether the interaction of PGE2 and wnt/β-catenin signaling is a conserved regulator of stem and progenitor cell populations in other tissues, endodermal and hepatic progenitor cells were examined during zebrafish development. […] ( 51/56), as detected by expression of liver fatty acid binding protein (lfabp). […] This finding is supported by the detection of various components of PGE2 signaling in foxA3 positive cells.
The APC mutant zebrafish to model constitutive activation of the wnt signaling pathway, was used to characterize the effects of the wnt/PG interaction in foxA3+ endodermal progenitors at 48 hpf. APC+/− embryos have enhanced foxA3 expression and an increased liver bud ( 88/93) as well as increased liver size ( 68/75) compared to wild-type siblings. […] Both cyclinD1 and cmyc were co-regulated by wnt and prostaglandin during development which may indicate that PGE2 exerts its effects on stem cells through enhanced cell cycling and proliferation.
as §1

For `CCCCC[C@H](O)/C=C/[C@H]1[C@H](O)CC(=O)[C@@H]1C/C=C/CCCC(=O)O` (relative stereo) [5-trans PGE2], the “toxicity noted in liver growth chart” value (liver growth [1]) was “toxic”.
With `C[C@]12CC[C@@H]3c4ccc(O)cc4CC[C@H]3[C@@H]1CC[C@@H]2O` [3-estradiol] the “effect on liver growth” value (liver growth [2]) was “inhibited”.
For `CC1=C(/C=C/C(C)=C/C=C/C(C)=C/C(=O)O)C(C)(C)CCC1` [All-trans retinoic acid], the “effect on liver growth” value (liver growth [2]) was “enhanced”.
For `O=C1Nc2cc(Br)ccc2/C1=C1/Nc2ccccc2/C1=N\O` [BIO], the CFU-S12 increase ([3]; BIO 0.05 mg/kg, p=0.03) was 2 fold and the “early spleen colony formation following bone marrow transplantation” value ([3]; FIG. 11 legend) was “enhances early spleen colony formation”.
In the case of `CC1=C(/C=C/C(C)=C/C=C/C(C)=C/C=C/C=C(C)/C=C/C=C(C)/C=C/C2=C(C)CCCC2(C)C)C(C)(C)CCC1` [Beta-Carotene], the “effect on liver growth” value (liver growth [2]) is reported as “inhibited”.
With `O=S(=O)(NCCNC/C=C/c1ccc(Br)cc1)c1cccc2cnccc12` [H89] the “effect on increased HSC formation induced by dmPGE2” value ([4]; PKA inhibition) was “reduced the increased HSC formation” and the “effect on the rescue of dkk effects by dmPGE2” value ([4]; PKA inhibition) was “eliminated”.
`CCCCC[C@H](O)/C=C/[C@H]1[C@H](O)CC(=O)[C@@H]1C/C=C\CCCC(=O)O` [PGE2, Prostaglandin E2] was tested, and the “wound healing at the incision site” value (adult zebrafish liver) was “heal faster and to a greater extent” and the “wnt activity in the developing brain, liver and gut” value (wnt activity) was “increased wnt activity”.
In the case of `CC1=C(/C=C/C(C)=C/C=C/C(C)=C/CO)C(C)(C)CCC1` [Retinol], the “effect on liver growth” value (liver growth [2]) is reported as “enhanced”.
`CCCCC(C)(C)[C@H](O)/C=C/[C@H]1[C@H](O)CC(=O)[C@@H]1C/C=C\CCCC(=O)O` [dmPGE2, dimethyl-prostaglandin E2] was tested, and the liver vascularity (adult zebrafish liver; compared to untreated fish) was “increases in liver vascularity”, the “liver regrowth compared to controls” value (adult zebrafish liver; exposure following resection (indomethacin hour 6 to 18; day 1 and day 3)) was “enhanced liver regrowth” and the “complete regeneration of the liver” value (adult zebrafish liver; indomethacin: by day 5 post-resection) was “faster complete regeneration”. The “wound healing at the incision site” value (adult zebrafish liver) was “more rapid wound healing”, the “kidney marrow repopulation following injury” value [5] was “enhance kidney marrow repopulation” and the “wnt-active cells in the aorta-gonad mesonephros (AGM)” value (wnt activity; 10 μM, vs. 3±1.8 cells) was 12±3.4 cells. The “wnt activity in the developing brain, liver and gut” value (wnt activity) was “enhance wnt signaling”, the “induction of wnt activity, qPCR for GFP” value (wnt activity; whole embryo extracts) was 2 fold and the “enhanced endodermal progenitors (# altered/# scored)” value ([6]; APC+/− embryos) was 47/54. The “enhanced liver size (# altered/# scored)” value ([6]; APC+/− embryos) was 75/81, the “rescue of liver growth inhibited by morpholino knock-down of cox1 or cox2” value ([6]; exogenous dmPGE2) was “rescued fully” and the “expanded foxA3 population with increased liver anlage (# altered/# scored)” value ([6]; wild-type embryos) was 75/83. For the same compound, the “increased liver size (# altered/# scored)” value ([6]; wild-type embryos) was 88/92, the “liver size / liver development compared to controls” value ([6]; zebrafish embryos, by 72 hours post-fertilization) was “enhanced liver development” and the “rescue of axin-mediated inhibition of HSC formation” value ([4]; axin induced at ten somites) was “could not be overcome”. For the same compound, the “rescue of dominant-negative TCF-mediated loss of HSC formation” value ([4]; dnTCF induction) was “no rescue”, the “rescue of dkk1-mediated effect on HSC formation (# altered/# scored)” value ([4]; hs:dkk1 embryos, 10 μM, 16-36 hpf) was 28/51 and the “effects of wnt8/dkk1 induction on runx1, cmyb, flk1, ephB2 expression (qPCR)” value ([4]; indomethacin added to wnt8, dmPGE2 added to dkk1) was “could be modified”.
In the case of BMS189453, the “effect on liver growth” value (liver growth [2]) is reported as “inhibited”.
For Vitamin D, the “effect on liver growth” value (liver growth [2]) was “enhanced”.
